Reference: patent publication US8063221B2, “Aminoquinolones as GSK-3 inhibitors” (Kyorin Pharmaceutical Co., Ltd., priority 2006, dated 2011)
Values after ≈ are worked out from the molar mass of the structure shown. Like-named read-outs stand apart in the source and are kept apart here.

Legend:
[1] = target: T1, recombinant full-length human GSK3β (Homo sapiens, UniProt P49841); assay: Luciferase-coupled cell-free GSK3β kinase assay; format: biochemical
T1 construct: recombinant full-length human GSK3β (Upstate); purchased Upstate
T1 sequence (P49841 whole entry): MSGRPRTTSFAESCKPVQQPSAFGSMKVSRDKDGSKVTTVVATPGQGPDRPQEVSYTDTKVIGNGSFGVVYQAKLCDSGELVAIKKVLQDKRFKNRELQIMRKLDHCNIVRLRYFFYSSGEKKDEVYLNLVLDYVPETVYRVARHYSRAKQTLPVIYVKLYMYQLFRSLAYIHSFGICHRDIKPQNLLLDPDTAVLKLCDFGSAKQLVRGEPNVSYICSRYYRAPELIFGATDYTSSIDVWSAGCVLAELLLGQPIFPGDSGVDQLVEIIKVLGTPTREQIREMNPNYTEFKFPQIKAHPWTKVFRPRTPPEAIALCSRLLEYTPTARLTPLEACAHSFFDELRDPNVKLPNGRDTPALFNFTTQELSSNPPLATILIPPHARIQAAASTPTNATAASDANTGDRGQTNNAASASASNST
Description: For compounds in Tables 1 and 2, IC50 (μM) for GSK3β enzyme in cell free assay is provided as follows:
Luciferase-Coupled Protein Kinase Assays
All coupled-luciferase assays are performed by using a brief incubation with firefly luciferase (Promega) after completion of the kinase assay. KinaseGlo Plus is used for reading kinase reactions with ATP>10 μM, KinaseGlo for ATP <10 μM. The assay volume in a 384-well plate for the kinase reaction is 30 microliters.
10-25 ng of recombinant full-length human GSK3β (Upstate) is incubated in the presence or absence of compound at varying concentrations for 1 hour at 30 degrees Celsius in 20 mM MOPS, pH 7.0, 10 mM magnesium acetate, 0.2 mM EDTA, 2 mM EGTA, 30 mM magnesium chloride, 62.5 μM phospho-glycogen synthase peptide-2, 5 μM ATP, 10 mM β-glycerol phosphate, 1 mM sodium orthovanadate and 1 mM dithiothreitol. Proceed to KinaseGlo luciferase reaction (see below).
Following the completion of the kinase reaction an equal volume of KinaseGlo or KinaseGlo Plus luciferase reagent (Promega) is added and the luminescence read using a luminescence plate reader within 5-10 minutes. Compound activity is expressed as % inhibition relative to maximal inhibition observed at the maximal dose and IC50 values then calculated using curve fitting software (GraphPad Prizm).

S. aureus Smith = assay: Antibacterial activity (MIC), S. aureus; format: cell-based; conditions: Staphylococcus aureus
Text: (§1) As used herein, a minimum inhibitory concentration (MIC) for bacterial growth assay is the lowest level of a compound needed to cause an inhibition to bacterial growth in culture medium. In certain embodiments, the antibacterial activity of compounds herein, measured as MIC.
(§2) In certain embodiments, GSK3 inhibitors provided herein are substantially free of antibacterial activity or having very low antibacterial activity. The antibacterial activity can be measured by methods known in the art by estimating a minimum inhibitory concentration (MIC) for test compounds. A MIC is the lowest level of a compound needed to cause an inhibition to bacterial growth in a culture medium. […] (Clinical and Laboratory Standards Institute. Methods for Dilution Antimicrobial Susceptibility Tests for Bacteria That Grow Aerobically; Approved Standard-Sixth Edition: CLSI document […]. CLSI, Wayne, Pa. (2003))
(§3) Antibacterial activity for E. coli, ATCC8739 andS. aureus Smith expressed as MIC (μM) is provided as follows: […]

E. coli, ATCC8739 = assay: Antibacterial activity (MIC), E. coli; format: cell-based; conditions: Escherichia coli
Text: as §1, §2, §3

[2] = Table 1, read-out: Antibacterial MIC (μM) S. aureus Smith
[3] = ATCC8739, Table 1, E. coli ATCC8739, read-out: Antibacterial MIC (μM) E.Coli
[4] = Table 2, S. aureus Smith, read-out: Antimicrobial MIC [μM] S. aureus
[5] = ATCC8739, Table 2, E. coli ATCC8739, read-out: Antimicrobial MIC [μM] E. Coli

IC50 ([1]; Table 1)	MIC (S. aureus Smith; [2])	MIC (E. coli, ATCC8739; [3])	IC50 ([1]; Table 2)	MIC (S. aureus Smith; [4])	MIC (E. coli, ATCC8739; [5])	SMILES	other results
100 to 500 nM	< 0.5 µM	0.5 to 10 µM (≈ 0.2 to 3.99 µg/mL)				Nc1c(F)c(NCCc2ccccc2)c(F)c2c1c(=O)c(C(=O)O)cn2C1CC1 [compound 1]	
			100 to 500 nM	> 50 µM	> 50 µM	COc1c(NCCCn2ccnc2)c(F)c(N)c2c(=O)ccn(C3CC3)c12 [compound 2]	
			100 to 500 nM	0.5 to 10 µM (≈ 0.199 to 3.98 µg/mL)	0.5 to 10 µM (≈ 0.199 to 3.98 µg/mL)	CC1COc2c(NCCc3ccncc3)c(F)c(N)c3c(=O)c(C(=O)O)cn1c23 (stereo not drawn) [compound 3]	
100 to 500 nM	< 0.5 µM	0.5 to 10 µM (≈ 0.2 to 4 µg/mL)				Nc1c(F)c(NCCc2ccncc2)c(F)c2c1c(=O)c(C(=O)O)cn2C1CC1 [compound 3]	
			100 to 500 nM	0.5 to 10 µM (≈ 0.197 to 3.93 µg/mL)	> 50 µM	CC(C)OCCCNc1c(F)c(N)c2c(=O)c(C(=O)O)cn3c2c1OCC3C (stereo not drawn) [compound 4]	
			< 100 nM	0.5 to 10 µM (≈ 0.209 to 4.18 µg/mL)	> 50 µM	CC1COc2c(NCCCN3CCCC3=O)c(F)c(N)c3c(=O)c(C(=O)O)cn1c23 (stereo not drawn) [compound 5]	
100 to 500 nM	< 0.5 µM	0.5 to 10 µM (≈ 0.209 to 4.17 µg/mL)				Nc1c(F)c(NCCc2ccc(F)cc2)c(F)c2c1c(=O)c(C(=O)O)cn2C1CC1 [compound 5]	
			< 100 nM	0.5 to 10 µM (≈ 0.226 to 4.51 µg/mL)	10 to 50 µM (≈ 4.51 to 22.6 µg/mL)	CC1COc2c(NCCCn3cnc4ccccc43)c(F)c(N)c3c(=O)c(C(=O)O)cn1c23 (stereo not drawn) [compound 6]	
< 100 nM	0.5 to 10 µM (≈ 0.207 to 4.13 µg/mL)	10 to 50 µM (≈ 4.13 to 20.7 µg/mL)				Nc1c(F)c(NCCCc2ccccc2)c(F)c2c1c(=O)c(C(=O)O)cn2C1CC1 [compound 6]	
100 to 500 nM	0.5 to 10 µM (≈ 0.208 to 4.15 µg/mL)	0.5 to 10 µM (≈ 0.208 to 4.15 µg/mL)				Nc1c(F)c(NCCNc2ccccn2)c(F)c2c1c(=O)c(C(=O)O)cn2C1CC1 [compound 7]	
			> 1000 nM	10 to 50 µM (≈ 3.97 to 19.9 µg/mL)	10 to 50 µM (≈ 3.97 to 19.9 µg/mL)	Nc1c(F)c(NCCCc2ccccc2)c2c3c1c(=O)c(C(=O)O)cn3CCO2 [compound 8]	
			500 to 1000 nM	> 50 µM	10 to 50 µM (≈ 3.87 to 19.4 µg/mL)	Nc1c(F)c(NCCCn2ccnc2)c2c3c1c(=O)c(C(=O)O)cn3CCO2 [compound 9]	
100 to 500 nM	> 50 µM	> 50 µM				Nc1c(F)c(NCCc2ccncc2)c(F)c2c1c(=O)ccn2C1CC1 [compound 11]	
			< 100 nM	0.5 to 10 µM (≈ 0.241 to 4.81 µg/mL)	10 to 50 µM (≈ 4.81 to 24.1 µg/mL)	CC1COc2c(NCCNc3cccc(C(F)(F)F)n3)c(F)c(N)c3c(=O)c(C(=O)O)cn1c23 (stereo not drawn) [compound 12]	
500 to 1000 nM	10 to 50 µM (≈ 3.7 to 18.5 µg/mL)	> 50 µM				Nc1ccc(CCNc2c(F)c(N)c3c(=O)ccn(C4CC4)c3c2F)cc1 [compound 12]	
			< 100 nM	0.5 to 10 µM (≈ 0.234 to 4.67 µg/mL)	10 to 50 µM (≈ 4.67 to 23.4 µg/mL)	CC1COc2c(NCCNc3nc(F)c(F)cc3F)c(F)c(N)c3c(=O)c(C(=O)O)cn1c23 (stereo not drawn) [compound 13]	
100 to 500 nM	10 to 50 µM (≈ 3.69 to 18.5 µg/mL)	10 to 50 µM (≈ 3.69 to 18.5 µg/mL)				Nc1c(F)c(NCCCc2ccccc2)c(F)c2c1c(=O)ccn2C1CC1 [compound 13]	
			< 100 nM	0.5 to 10 µM (≈ 0.216 to 4.31 µg/mL)	10 to 50 µM (≈ 4.31 to 21.6 µg/mL)	CC1COc2c(NCCNc3cccc(F)n3)c(F)c(N)c3c(=O)c(C(=O)O)cn1c23 (stereo not drawn) [compound 14]	
			< 100 nM		10 to 50 µM (≈ 4.11 to 20.6 µg/mL)	C[C@H]1COc2c(NCCCc3ccccc3)c(F)c(N)c3c(=O)c(C(=O)O)cn1c23 [compound 29]	
			100 to 500 nM			CC(CCc1ccccc1Cl)Nc1c(F)c(N)c2c(=O)c(C(=O)O)cn3c2c1OC[C@@H]3C (stereo partly drawn) [compound 88]	
< 100 nM						CC1COc2c(NCCCn3ccnc3)c(F)c(N)c3c(=O)c(C(=O)O)cn1c23 (stereo not drawn) [compound 89]	
			< 100 nM			COc1cccc(CCCNc2c(F)c(N)c3c(=O)c(C(=O)O)cn4c3c2OC[C@@H]4C)c1 [compound 89]	
			500 to 1000 nM			CC1Cc2ccccc2N1C(=O)CCCNc1c(F)c(N)c2c(=O)c(C(=O)O)cn3c2c1OC[C@@H]3C (stereo partly drawn) [compound 90]	

SMILES	IC50 ([1]; Table 1)	MIC (S. aureus Smith; [2])	MIC (E. coli, ATCC8739; [3])	IC50 ([1]; Table 2)	MIC (S. aureus Smith; [4])	MIC (E. coli, ATCC8739; [5])	other results
Nc1c(F)c(NCCc2ccc(F)cc2)c(F)c2c1c(=O)ccn2C1CC1 [compound 10]	500 to 1000 nM						MIC (S. aureus Smith; read-out: Antibacterial MIC (μM) S. aureus Smith): 10 to 50 µM (≈ 3.73 to 18.7 µg/mL); MIC (E. coli, ATCC8739; ATCC8739, read-out: Antibacterial MIC (μM) E.Coli): 10 to 50 µM (≈ 3.73 to 18.7 µg/mL)
